Data published in BigSolDB 2.1.

Oc1ccccc1C=N[C@@H]1CCCC[C@H]1N=Cc1ccccc1O
solubility (mole fraction)
Settings	273.15 K	278.15 K	283.15 K	288.15 K	293.15 K	298.15 K	303.15 K	308.15 K	313.15 K
in 1,2-dichloroethane	0.0862	0.0965	0.109	0.12	0.134	0.15	0.168	0.187	0.211
in THF	0.135	0.144	0.157	0.169	0.186	0.201	0.221	0.242	0.263
in acetone	0.0295	0.0351	0.0402	0.0462	0.053	0.0626	0.0732	0.0843	0.0956
in acetonitrile	0.00397	0.00491	0.00616	0.0076	0.00961	0.0122	0.0159	0.02	0.025
in dichloromethane	0.117	0.13	0.141	0.154	0.165	0.18	0.197	0.213	0.229
in ethanol	0.000787	0.000988	0.00123	0.00153	0.00189	0.00236	0.0029	0.00358	0.00452
in ethyl acetate	0.0241	0.0294	0.0347	0.0415	0.0489	0.0592	0.0691	0.0852	0.101
in methanol	0.00051	0.000645	0.000817	0.00103	0.00128	0.00161	0.00198	0.00242	0.00298
in methyl acetate	0.0199	0.0244	0.0292	0.0357	0.0436	0.0532	0.0648	0.0791	0.0961
in n-hexane	0.000539	0.000713	0.000988	0.00131	0.00172	0.00223	0.00287	0.00376	0.00449
in n-propanol	0.001	0.00125	0.00157	0.00196	0.00243	0.00303	0.00372	0.00452	0.00554
in toluene	0.0411	0.0487	0.0566	0.0674	0.0802	0.0954	0.11	0.129	0.149
